From US7632829B2, “Diazepan derivatives” (Hoffmann-La Roche Inc., priority 2006, dated 2009)
Where a name gives a salt, the structure may show the parent alone.

What follows are compounds tested against T1, human chemokine receptor 2 isoform B (Homo sapiens, UniProt P41597) (assay: Calcium mobilization assay (FLIPR, CHOK1-CCR2B-A5 cells, 20 nM MCP-1)). Details: Ca mobilisation assay, CCR2, antagonist activity vs 20 nM MCP-1.
T1 construct: host or cells: CHOK1-CCR2B-A5 (CHO-K1)
T1 sequence (P41597 1-360 isoform P41597-2): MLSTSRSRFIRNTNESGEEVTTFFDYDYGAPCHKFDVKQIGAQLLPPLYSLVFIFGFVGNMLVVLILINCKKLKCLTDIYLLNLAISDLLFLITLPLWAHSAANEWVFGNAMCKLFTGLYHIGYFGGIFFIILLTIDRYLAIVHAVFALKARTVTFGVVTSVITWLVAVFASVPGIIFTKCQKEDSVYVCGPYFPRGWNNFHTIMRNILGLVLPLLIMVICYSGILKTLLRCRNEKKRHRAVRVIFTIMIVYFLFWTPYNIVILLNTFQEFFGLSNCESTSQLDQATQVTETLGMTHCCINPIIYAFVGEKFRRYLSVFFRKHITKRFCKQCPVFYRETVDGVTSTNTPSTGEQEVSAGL
Format: cell-based
Outline: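 FLIPR Fluo-4 calcium readout in CHO-K1 cells stably overexpressing human CCR2B; compounds first monitored 80 s for agonist activity, then after 20-30 min at 30 °C challenged with 20 nM MCP-1. Response is max minus basal fluorescence; antagonist value is concentration giving 50% inhibition of specific calcium increase.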

Question: For `O=C(/C=C/c1ccc(Cl)c(Cl)c1)N1CCC(=O)N(CCCN2CCSCC2)CC1` [Example 51, 1-[(E)-3-(3,4-Dichloro-phenyl)-acryloyl]-4-(3-thiomorpholin-4-yl-propyl)-[1,4]diazepan-5-one], which IC50 is on record?
Answer: 46 nM

Question: How did the IC50 turn out when `COC1CCN(CCCN2CCN(C(=O)/C=C/c3ccc(Cl)c(Cl)c3)CCC2=O)CC1` [Example 79, 1-[(E)-3-(3,4-Dichloro-phenyl)-acryloyl]-4-[3-(4-methoxy-piperidin-1-yl)-propyl]-[1,4]diazepan-5-one] was run?
Answer: 706 nM

Question: `CC1CCC(O)CN1CCCCN1CCN(C(=O)/C=C/c2ccc(Cl)c(Cl)c2)CCC1=O` (racemic) [Example 475] was tested. Which IC50 did it give?
Answer: 20 nM

Question: `O=C(/C=C/c1ccc(Cl)c(Cl)c1)N1CCC(=O)N(CCN2CCC[C@H]2CO)CC1` [Example 117, (S)-1-[(E)-3-(3,4-Dichloro-phenyl)-acryloyl]-4-[3-(2-hydroxymethyl-pyrrolidin-1-yl)-ethyl]-[1,4]diazepan-5-one] was tested. Which IC50 did it give?
Answer: 459 nM

Question: With `O=C(/C=C/c1ccc(Cl)c(F)c1)N1CCC(=O)N(CCCCN2CC(O)CCC2CO)CC1` (racemic) [Example 414] as the compound, how does the IC50 read?
Answer: 65 nM

Question: `COCC1(C)CCCN(CCCCN2CCN(C(=O)/C=C/c3ccc(Cl)c(Cl)c3)CCC2=O)C1` (racemic) [Example 446] was tested. Which IC50 did it give?
Answer: 626 nM

Question: `CC1C(O)CCCN1CCCN1CCN(C(=O)C=Cc2ccc(F)c(Cl)c2)CCC1=O` (mixture of isomers) [Example 209, (rac,cis)-1-[(E)-3-(3-Chloro-4-fluoro-phenyl)-acryloyl]-4-[3-(3-hydroxy-2-methyl-piperidin-1-yl)-propyl]-[1,4]diazepan-5-one] was tested. Which IC50 did it give?
Answer: 1390 nM

Question: For `COCC1CCCN(CCCCN2CCN(C(=O)/C=C/c3ccc(Cl)c(Cl)c3)CCC2=O)C1` (racemic) [Example 432], which IC50 is on record?
Answer: 16 nM

Question: For `CC1(CO)CCCN1CC(O)CN1CCN(C(=O)C=Cc2ccc(Cl)c(Cl)c2)CCC1=O` (racemic) [Example 322], which IC50 is on record?
Answer: 1200 nM

Question: How did the IC50 turn out when `CC1(CO)CCN(CCCN2CCN(C(=O)/C=C/c3ccc(Cl)c(Cl)c3)CCC2=O)CC1` [Example 254] was run?
Answer: 108 nM

Question: With `C[C@@H]1C[C@H](O)CN(C[C@H](O)CCN2CCN(C(=O)/C=C/c3ccc(F)c(Cl)c3)CCC2=O)C1` [Example 502] as the compound, how does the IC50 read?
Answer: 253 nM

Question: `O=C(/C=C/c1ccc(Cl)c(Cl)c1)N1CCC(=O)N(CCCN2CCS(=O)(=O)CC2)CC1` [Example 40, 1-[(E)-3-(3,4-Dichloro-phenyl)-acryloyl]-4-[3-(1,1-dioxo-thiomorpholin-4-yl)-propyl]-[1,4]diazepan-5-one] was tested. Which IC50 did it give?
Answer: 611 nM

Question: `COCC1CCCN(CC(O)CCN2CCN(C(=O)/C=C/c3ccc(Cl)c(Cl)c3)CCC2=O)C1` (racemic) [Example 361] was tested. Which IC50 did it give?
Answer: 226 nM

Question: `O=C(/C=C/c1ccc(Cl)c(Cl)c1)N1CCC(=O)N(CCCCN2CC[C@H](O)[C@H](O)C2)CC1` (racemic) [Example 163, 1-[(E)-3-(3,4-Dichloro-phenyl)-acryloyl]-4-[4-((3RS,4SR)-3,4-dihydroxy-piperidin-1-yl)-butyl]-[1,4]diazepan-5-one hydrochlorid] was tested. Which IC50 did it give?
Answer: 560 nM

Question: For `O=C(/C=C/c1ccc(Cl)c(Cl)c1)N1CCC(=O)N(CCCCN2CCCC(CO)C2)CC1` (racemic) [Example 425], which IC50 is on record?
Answer: 89 nM

Question: How did the IC50 turn out when `CCN(CC)C1CCN(CCCN2CCN(C(=O)/C=C/c3ccc(Cl)c(Cl)c3)CCC2=O)C1` (racemic) [Example 278, (rac)-1-[(E)-3-(3,4-Dichloro-phenyl)-acryloyl]-4-[3-(3-diethylamino-pyrollidin-1-yl)-propyl]-[1,4]diazepan-5-one] was run?
Answer: 540 nM

Question: Which IC50 does the source give for `CC1CCCN(CC(O)CCN2CCN(C(=O)/C=C/c3ccc(Cl)c(Cl)c3)CCC2=O)C1` (racemic) [Example 376] here?
Answer: 416 nM

Question: Which IC50 does the source give for `O=C(/C=C/c1ccc(Cl)c(Cl)c1)N1CCC(=O)N(CC(O)CN2CCCC(CO)C2)CC1` (racemic) [Example 289] here?
Answer: 296 nM

Question: Which IC50 does the source give for `CC1(CO)CCCN1CCCCN1CCN(C(=O)/C=C/c2ccc(Cl)c(Cl)c2)CCC1=O` (racemic) [Example 462] here?
Answer: 41 nM

Question: How did the IC50 turn out when `CC1(C)CN(CCCN2CCN(C(=O)/C=C/c3ccc(Cl)c(Cl)c3)CCC2=O)CCC1O` (racemic) [Example 257] was run?
Answer: 182 nM

Question: `O=C(/C=C/c1ccc(Cl)c(Cl)c1)N1CCC(=O)N(CCCN2CCC(c3cc[nH]n3)CC2)CC1` [Example 57, 1-[(E)-3-(3,4-Dichloro-phenyl)-acryloyl]-4-{3-[4-(1H-pyrazol-3-yl)-piperidin-1-yl]-propyl}-[1,4]diazepan-5-one] was tested. Which IC50 did it give?
Answer: 217 nM

Question: `O=C(/C=C/c1ccc(F)c(Cl)c1)N1CCC(=O)N(CCCCN2CC[C@H](F)[C@@H](O)C2)CC1` (relative stereo) [Example 389] was tested. Which IC50 did it give?
Answer: 323 nM

Question: `CC1CCC(N(C)CCCN2CCN(C(=O)/C=C/c3ccc(Cl)c(Cl)c3)CCC2=O)CC1` (mixture of isomers) [Example 54, cis/trans-1-[(E)-3-(3,4-Dichloro-phenyl)-acryloyl]-4-{3-[methyl-(4-methyl-cyclohexyl)-amino]-propyl}-[1,4]diazepan-5-one] was tested. Which IC50 did it give?
Answer: 747 nM

Question: For `COCCN1CCN(CCCCN2CCN(C(=O)/C=C/c3ccc(F)c(Cl)c3)CCC2=O)CC1` [Example 399], which IC50 is on record?
Answer: 720 nM

Question: `O=C(/C=C/c1ccc(Cl)c(Cl)c1)N1CCC(=O)N(CCC(O)CN2CCCC(O)C2)CC1` (racemic) [Example 171, (rac)-1-[(E)-3-(3,4-Dichloro-phenyl)-acryloyl]-4-[3-hydroxy-4-(3-hydroxy-piperidin-1-yl)-butyl]-[1,4]diazepan-5-one] was tested. Which IC50 did it give?
Answer: 995 nM

Question: With `O=C(/C=C/c1ccc(Cl)c(Cl)c1)N1CCC(=O)N(CCCNC2CC3CCC2C3)CC1` (racemic) [Example 38, (+/−)-4-[3-(Bicyclo[2.2.1]hept-2-ylamino)-propyl]-1-[(E)-3-(3,4-dichloro-phenyl)-acryloyl]-[1,4] diazepan-5-one] as the compound, how does the IC50 read?
Answer: 121 nM

Question: Which IC50 does the source give for `COCC1CCN(CCCCN2CCN(C(=O)/C=C/c3ccc(F)c(Cl)c3)CCC2=O)CC1` [Example 404] here?
Answer: 95 nM

Question: `O=C(/C=C/c1ccc(Cl)c(Cl)c1)N1CCC(=O)N(CCCN2CCC(O)(c3ncco3)CC2)CC1` [Example 85, 1-[(E)-3-(3,4-Dichloro-phenyl)-acryloyl]-4-[3-(4-hydroxy-4-oxazol-2-yl-piperidin-1-yl)-propyl]-[1,4]diazepan-5-one] was tested. Which IC50 did it give?
Answer: 1170 nM

Question: For `O=C(/C=C/c1ccc(Cl)c(F)c1)N1CCC(=O)N(CCCCN2CCC3(CC3)C(O)C2)CC1` (stereo not shown) [Example 415], which IC50 is on record?
Answer: 27 nM

Question: How did the IC50 turn out when `CC1CCN(CC(O)CCN2CCN(C(=O)/C=C/c3ccc(Cl)c(Cl)c3)CCC2=O)CC1O` (racemic) [Example 359] was run?
Answer: 807 nM

Question: Which IC50 does the source give for `O=C(/C=C/c1ccc(Cl)c(Cl)c1)N1CCC(=O)N(CC(O)CN2CCCC(O)C2)CC1` (racemic) [Example 281] here?
Answer: 129 nM

Question: With `CC1(CO)CCCN1CC(O)CCN1CCN(C(=O)/C=C/c2ccc(Cl)c(Cl)c2)CCC1=O` (racemic) [Example 381] as the compound, how does the IC50 read?
Answer: 236 nM

Question: For `COCC1C(O)CCC(C)N1CCCCN1CCN(C(=O)C=Cc2ccc(Cl)c(Cl)c2)CCC1=O` (racemic) [Example 488, (rac,cis)-1-[(E)-3-(3,4-Dichloro-phenyl)-acryloyl]-4-[4-(3-hydroxy-2-methoxymethyl-6-methyl-piperidin-1-yl)-butyl]-[1,4]diazepan-5-one], which IC50 is on record?
Answer: 618 nM

Question: For `O=C(/C=C/c1ccc(Cl)c(Cl)c1)N1CCC(=O)N(CCCN2CCC(F)(F)CC2)CC1` [Example 55, 1-[(E)-3-(3,4-Dichloro-phenyl)-acryloyl]-4-[3-(4,4-difluoro-piperidin-1-yl)-propyl]-[1,4]diazepan-5-one], which IC50 is on record?
Answer: 98 nM

Question: Which IC50 does the source give for `COCC1(C)CCCN(CC(O)CN2CCN(C(=O)/C=C/c3ccc(Cl)c(Cl)c3)CCC2=O)C1` (racemic) [Example 306] here?
Answer: 391 nM

Question: How did the IC50 turn out when `O=C(/C=C/c1ccc(OCc2ccccc2)cc1)N1CCC(=O)N(CCN2CCCC2)CC1` [Example 17, 1-[(E)-3-(4-Benzyloxy-phenyl)-acryloyl]-4-(2-pyrrolidin-1-yl-ethyl)-[1,4]diazepan-5-one] was run?
Answer: 756 nM

Question: Which IC50 does the source give for `O=C(/C=C/c1ccc(Cl)c(Cl)c1)N1CCC(=O)N(CCCN2CCC(C(F)(F)F)CC2)CC1` [Example 72, 1-[(E)-3-(3,4-Dichloro-phenyl)-acryloyl]-4-[3-(4-trifluoromethyl-piperidin-1-yl)-propyl]-[1,4]diazepan-5-one] here?
Answer: 312 nM

Question: How did the IC50 turn out when `O=C(/C=C/c1cccc(Cl)c1)N1CCC(=O)N(CCN2CCC(c3ccccc3)CC2)CC1` [Example 32, 1-[(E)-3-Chloro-phenyl-acryloyl]-4-{2-[4-phenyl-piperidin-1-yl]-ethyl}-[1,4]diazepan-5-one] was run?
Answer: 1470 nM

Question: For `CC1(C)CCN(CC(O)CN2CCN(C(=O)/C=C/c3ccc(F)c(F)c3)CCC2=O)CC1O` (racemic) [Example 499], which IC50 is on record?
Answer: 84 nM

Question: How did the IC50 turn out when `O=C(/C=C/c1ccc(Cl)c(Cl)c1)N1CCC(=O)N(CC(O)CN2CC[C@H](O)[C@H](F)C2)CC1` (relative stereo) [Example 287] was run?
Answer: 848 nM

Question: With `O=C(/C=C/c1ccc(Cl)c(Cl)c1)N1CCC(=O)N(CCCN2CCC(O)(c3cccnc3)CC2)CC1` [Example 70, 1-[(E)-3-(3,4-Dichloro-phenyl)-acryloyl]-4-[3-(4′-hydroxy-3′,4′,5′,6′-tetrahydro-2′H-[3,4′]bipyridinyl-1′-yl)-propyl]-[1,4]diazepan-5-one] as the compound, how does the IC50 read?
Answer: 146 nM

Question: With `O=C(/C=C/c1ccc(Cl)c(Cl)c1)N1CCC(=O)N(CCCCN2CCC3(CCCO3)CC2)CC1` (racemic) [Example 467] as the compound, how does the IC50 read?
Answer: 1160 nM

Question: With `COCC1CC(OC)C(O)CN1CCCCN1CCN(C(=O)/C=C/c2ccc(Cl)c(Cl)c2)CCC1=O` (racemic) [Example 478] as the compound, how does the IC50 read?
Answer: 998 nM
